From patent US8415372B2, “Sulfonamide compound” (Asahi Kasei Pharma Corporation, priority 2007, dated 2013)

Assays:
[1] = tested on: rabbit normal intraocular pressure; test: Intraocular pressure reducing action (Test Example 3); assay type: in vivo, Japanese white rabbit; conditions: Oryctolagus cuniculus, topical; 3 mM aqueous solution, 50 μl to the left eye; max difference of left and right eyes at 2, 4 and 6 hours relative to value before administration; read-out: Intraocular pressure reducing degree
Procedure: A Japanese white rabbit having a body weight of about 2 kg was placed in a positioner and naturalized for one week before the experiment. An ophthalmologic local anesthesant (Benoxil) was administered to both eyes, and then intraocular pressure was measured by using a tonometer (Classic 30, Solan). A 3 mM aqueous solution of a test compound was administered in a volume of 50 μl to the left eye, and the right eye was not treated (control eye). The intraocular pressure values were measured for the left and right eyes immediately before, and 2, 4 and 6 hours after the administration of the aqueous solution of the test compound, and the difference of the measured values for the left and right eyes was considered an intraocular pressure reduction value of the test medicament at each measurement time. The largest difference of the values for the left and right eyes among the measured values at the measurement times (after 2, 4 and 6 hours) was considered the maximum intraocular pressure reduction value (max ? IOP) of each test medicament. The intraocular pressure reducing degree representing the intraocular pressure reducing action of each test medicament was calculated according to the following formula. Since rabbits show significant daily variation of intraocular pressure, daily variation is added when change of intraocular pressure is measured over time, and the intraocular pressure reducing action may be overestimated. Therefore, we used this calculation method of intraocular pressure reduction value in order to minimize the influence of the variation. Intraocular pressure reducing degree(%)=(max ? IOP/Intraocular pressure value immediately before administration)×100

[2] = tested on: monkey intraocular pressure; test: Intraocular pressure reduction enhancing action in monkey (Test Example 8); assay type: in vivo; conditions: cynomolgus monkey
Procedure: As for the test compound used for combination use, similar effect can be obtained also with the compounds of the present invention represented with the example numbers mentioned in Test Example 3. The test is performed by using cynomolgus monkeys sufficiently naturalized for the operation of fixation on a monkey chair and intraocular pressure measurement.
As the test compound, the 19-1 compound was dissolved in physiological saline, and the solution is neutralized by addition of sodium hydroxide (pH 7.0 to 8.0) to prepare a 0.01 weight % aqueous solution (19-1 compound aqueous solution). As a drug for combination use, latanoprost (trade name: Xalatan, Pfizer) is used as the marketed formulation per se. The test aqueous solution or the drug for combination use is instilled to the left eye, and the right eye is not treated (control eye). […] After initial intraocular pressure values of the monkeys are measured for each group, 30 μL of physiological saline is instilled to the control group, single drug group 1, and single drug group 2, and latanoprost is instilled in the same volume to the combination use group. […] Then, the intraocular pressure is measured over time for each group.

## CN[C@H]1CCN(S(=O)(=O)c2cccc3cncc(Br)c23)C1 [Example 1-3, (S)-1-(4-Bromo-5-isoquinolinesulfonyl)-3-(methylamino)pyrrolidine]
[1]
  inhibition in vivo at 3000 µM: ≥ 20%

## COc1ccc(CN[C@H]2CCN(S(=O)(=O)c3cccc4cncc(Br)c34)C2)cc1 [Example 1-7]
[1]
  inhibition in vivo at 3000 µM: 5 to 10%

## Cc1nc(CNC2CCN(S(=O)(=O)c3cccc4cncc(Br)c34)C2)c[nH]1 (stereo not drawn) [Example 1-19]
[1]
  inhibition in vivo at 3000 µM: 5 to 10%

## Cn1cccc1CNC1CCN(S(=O)(=O)c2cccc3cncc(Br)c23)C1 (stereo not drawn) [Example 1-20]
[1]
  inhibition in vivo at 3000 µM: 10 to 20%

## NCCNC1CCN(S(=O)(=O)c2cccc3cncc(Br)c23)C1 (stereo not drawn) [Example 1-31]
[1]
  inhibition in vivo at 3000 µM: 10 to 20%

## CN[C@H]1CCN(S(=O)(=O)c2cccc3cncc(C)c23)C1 [Example 8-3]
[1]
  inhibition in vivo at 3000 µM: ≥ 20%

## Cc1cncc2cccc(S(=O)(=O)N3CCC(NC(C)C)C3)c12 (stereo not drawn) [Example 8-27]
[1]
  inhibition in vivo at 3000 µM: 10 to 20%

## Cc1cncc2cccc(S(=O)(=O)N3CCC(NC4CCC4)C3)c12 (stereo not drawn) [Example 8-28]
[1]
  inhibition in vivo at 3000 µM: 5 to 10%

## Cc1cncc2cccc(S(=O)(=O)N3CCC(NC4CCCC4)C3)c12 (stereo not drawn) [Example 8-29]
[1]
  inhibition in vivo at 3000 µM: 5 to 10%

## Cc1cncc2cccc(S(=O)(=O)N3CCC(NC4CCCCC4)C3)c12 (stereo not drawn) [Example 8-30]
[1]
  inhibition in vivo at 3000 µM: 5 to 10%

## Cc1cncc2cccc(S(=O)(=O)N3CCC(NC4CCOCC4)C3)c12 (stereo not drawn) [Example 8-31]
[1]
  inhibition in vivo at 3000 µM: 10 to 20%

## Cc1cncc2cccc(S(=O)(=O)N3CCC(NCCN)C3)c12 (stereo not drawn) [Example 8-32]
[1]
  inhibition in vivo at 3000 µM: 5 to 10%

## C=CCNC1CCN(S(=O)(=O)c2cccc3cncc(C)c23)C1 (stereo not drawn) [Example 8-34]
[1]
  inhibition in vivo at 3000 µM: 5 to 10%

## Cc1cncc2cccc(S(=O)(=O)N3CCC(NCCc4ccccc4)C3)c12 (stereo not drawn) [Example 8-37]
[1]
  inhibition in vivo at 3000 µM: 5 to 10%

## C#Cc1cncc2cccc(S(=O)(=O)N3CC[C@H](NCc4ccco4)C3)c12 [Example 10-14]
[1]
  inhibition in vivo at 3000 µM: 5 to 10%

## C#Cc1cncc2cccc(S(=O)(=O)N3CC[C@H](NC4CCOCC4)C3)c12 [Example 10-31]
[1]
  inhibition in vivo at 3000 µM: ≥ 20%

## N[C@H]1CCN(S(=O)(=O)c2cccc3cncc(Cl)c23)C1 [Example 19-1, (S)-3-Amino-1-(4-chloro-5-isoquinolinesulfonyl)pyrrolidine]
[2]; 30 μL latanoprost (Xalatan) then 30 μL 19-1 compound aqueous solution, compared with single drug groups
  Intraocular pressure reducing action, combination use group: exceeding those of both the single drug group 1 and single drug group 2
[2]; 30 μL of 0.01 weight % aqueous solution, compared with control group
  Intraocular pressure reducing action, single drug group 1: exceeding that of the control group

## CN[C@H]1CCN(S(=O)(=O)c2cccc3cncc(Cl)c23)C1 [Example 19-3, (S)-1-(4-Chloro-5-isoquinolinesulfonyl)-3-(methylamino)pyrrolidine]
[1]
  inhibition in vivo at 3000 µM: ≥ 20%

## CCN[C@H]1CCN(S(=O)(=O)c2cccc3cncc(Cl)c23)C1 [Example 19-4]
[1]
  inhibition in vivo at 3000 µM: ≥ 20%

## O=S(=O)(c1cccc2cncc(Cl)c12)N1CC[C@H](NCc2ccco2)C1 [Example 19-14]
[1]
  inhibition in vivo at 3000 µM: 5 to 10%

## O=S(=O)(c1cccc2cncc(Cl)c12)N1CC[C@H](NCc2cccs2)C1 [Example 19-17]
[1]
  inhibition in vivo at 3000 µM: 5 to 10%

## Cn1cccc1CN[C@H]1CCN(S(=O)(=O)c2cccc3cncc(Cl)c23)C1 [Example 19-21]
[1]
  inhibition in vivo at 3000 µM: ≥ 20%

## O=S(=O)(c1cccc2cncc(Cl)c12)N1CC[C@H](NC2CCOCC2)C1 [Example 19-31]
[1]
  inhibition in vivo at 3000 µM: ≥ 20%
